Several values for one entry are separate records, joined by “and”; a condition that tells them apart may be missing. Identical values can stand only once.
What was measured:
[1] = system: renal damage after administration of Cisplatin to mice; test: Renal damage after administration of Cisplatin to mice (nephrotoxicity model); type: in vivo, male mice C57BL6/J; conditions: for Body weight: Cisplatin mice (20 mg/Kg i.p.); for Concentration of creatinine in the serum / Kidney weight/body weight / Amount of albumin excreted with urine (18 hrs prior to sacrifice): Cisplatin mice
Source text: Cisplatin, a known and widely used chemotherapy agent, notoriously produces a serious renal damage in 50% of the patients subjected to treatment. Experimentally an animal model is used in mice, in which Cisplatin induces serious nephrotoxicity with ensuing renal disease. The model applied is as follows: male mice C57BL6/J were kept under standard conditions of care. Nephrotoxicity was induced into 8-weeks old mice and with an average weight of about 23 g, by means of an intraperitoneal injection of Cisplatin dihydrochloride in saline solution (20 mg/Kg in one administration). The control animals were treated in the same conditions using the saline solution alone. The animals were sacrificed 72 hrs after treatment with Cisplatin.
6 treatments were administered orally, one each 12 hrs by means of a tube, using both micronized palmitoylethanolamide-PEAm (10.0 mg/Kg) suspended in a carrier and ultra-micronized palmitoylethanolamide-PEAum (10.0 mg/Kg) suspended in a carrier; the first treatment was carried out 12 hours prior to the administration of the Cisplatin. The results were compared with control animals treated with the carrier alone. A 0.5% carboxymethyl cellulose solution was used as the carrier.
Diethanolamide of fumaric acid was administered in sterile aqueous saline solution by intraperitoneal injection (10.0 mg/Kg) with posology analogous to that of PEA; the results were compared with animals treated with sterile saline solution alone.
Prior to sacrifice, the blood was collected from the saphenous vein using a micro syringe to measure, through conventional methods, the levels of creatinine of the serum.

TGF-1β [2] = test: TGF-1β in renal cortex by ELISA, Cisplatin mice; type: in vivo, male mice C57BL6/J; conditions: pg/mg of total proteins
Description: (§1) The level of TGF-1β on the renal tissue was measured through the following method: small pieces of the renal cortex, carefully separated and weighed, were homogenised in Tris-HCl 10 mM buffer at a 7.4 pH containing 2M of NaCl, 1 mM PMSF (phenylmethylsulfonyl fluoride, as a protease inhibitor), 1 mM EDTA and 0.01% of Tween 80. The samples were centrifuged at 19,000 rpm for 30 minutes and the supernatant was collected, measured and preserved at −80° C. The amount of the TGF-1β was measured using the ELISA commercial kit (Quantikine Kit™, Res & Diagn Systems, Minneapolis, USA) and the value expressed in pg/mg of total proteins. The concentration of total proteins was measured using the Bio-Rad commercial test (Hercules, Calif., USA).

[3] = system: renal function of nephropathic patients; test: Effect of ultra-micronized palmitoylethanolamide in nephropathic patients; type: in vivo, human; conditions: 600 mg tablets, 2 per day, 60 days; for GFR Glomerulal Filtration Rate (Creatinine Clearance) T 60: Cockcroft-Gault; for Glycemia under fasting T 60: single patients Paz-04, -05, -06, diabetic nephropathy, compensated with insulin, T 0 values 210, 240, 280 mg/dl
Description: Palmitoylethanolamide was administered to patients in form of tablets each containing 600 mg of active ingredient in ultra-micronized form; 2 tablets per day (one every 12 hours, after meals) were administered to patients for 60 consecutive days).
Determination of the GRF (Glomerular Filtration Rate) by the creatinine endogenous marker was carried out according to the […] criteria (K/DOQI clinical practice guidelines for chronic kidney disease, 2002), using the Cockcroft-Gault equation (Cockcroft D. W. et al, 1976).

[4] = system: renal damage after administration of streptozotocin to mice; test: Renal damage after administration of streptozotocin to mice (diabetic nephropathy model); type: in vivo, male mice C57BL6/J
Source text: The model of streptozootocin in mice represents a classic and known model of hyperglycemia capable of inducing a progressive renal damage into the animal leading to the renal disease with clear alterations of the characteristic parameters.
The model applied is as follows: male mice C57BL6/J were kept under standard conditions of care. Diabetes was induced into 8-weeks old mice and with an average weight of about 22 g by means of an intraperitoneal injection of streptozotocin in citrate buffer (55 mg/Kg of weight/day) for 5 consecutive days. The control animals were treated in the same conditions using the citrate buffer alone.
Treatments were administered orally, by means of a tube, using both micronized Palmitoylethanolamide- PEAm (10.0 mg/Kg) suspended in a carrier and ultra-micronized palmitoylethanolamide PEAum (10.0 mg/Kg) suspended in a carrier; the results were compared with control animals treated with the carrier alone. A 0.5% carboxymethyl cellulose was used as a carrier.
Diethanolamide of fumaric acid was administered in sterile aqueous saline solution by intraperitoneal injection (10.0 mg/Kg); the results were compared with the animals treated with sterile saline solution alone.
Administration of the carrier and of the two different suspensions containing palmitoylethanolamide or of the injection solution containing diethanolamide of fumaric acid, were performed once per day starting from the day of the last administration of Streptozotocin. Prior to sacrifice, the blood was collected from the saphenous vein using a micro syringe to determining, through conventional methods, the levels of glycemia, glycated haemoglobin and creatinine of the serum.

TGF-1β [5] = test: TGF-1β in renal cortex by ELISA, streptozotocin mice; type: in vivo, male mice C57BL6/J; conditions: pg/mg of total proteins, diabetic mice
Description: as §1, with “The evaluation of TGF-1β” for “The level of TGF-1β”, “tissue was administered through the” for “tissue was measured through the”, “buffer at 7.4 pH” for “buffer at a 7.4 pH”, “protease inhibitor), 1mM EDTA and” for “protease inhibitor), 1 mM EDTA and”, “C. The evaluation of the” for “C. The amount of the”, “TGF-1β was made using the” for “TGF-1β was measured using the”

Solubility in water = type: physicochemical
[6] = 10.0 mg/Kg orally every 12 hrs x6, sacrifice 72 hrs, carrier alone 23.10 ± 1.22, control 26.12 ± 1.11
[7] = 10.0 mg/Kg orally every 12 hrs x6, carrier alone 1.26 ± 0.05, control 0.22 ± 0.01, 10 mg/kg
[8] = 10.0 mg/Kg orally every 12 hrs x6, carrier alone 7.22 ± 0.80, control 6.44 ± 0.03, 10 mg/kg
[9] = 10.0 mg/Kg orally every 12 hrs x6, carrier alone 363.75, control 37.4, 10 mg/kg
[10] = 10.0 mg/Kg orally every 12 hrs x6, carrier alone 25.3 ± 6.0, control 8.2 ± 0.7, 10 mg/kg
[11] = 10.0 mg/Kg orally once per day in 0.5% carboxymethyl cellulose, carrier alone 25.12 ± 1.10, non-diabetic 27.82 ± 1.18, 10 mg/kg
[12] = 10.0 mg/Kg orally once per day, carrier alone 1.11 ± 0.02, non-diabetic 0.21 ± 0.01, 10 mg/kg
[13] = 10.0 mg/Kg orally once per day, carrier alone 8.65 ± 0.85, non-diabetic 6.65 ± 0.04, 10 mg/kg
[14] = 10.0 mg/Kg orally once per day, carrier alone 12.80 ± 0.44, non-diabetic 4.89 ± 0.05, 10 mg/kg
[15] = 10.0 mg/Kg orally once per day, carrier alone 340.5, non-diabetic 33.7, 10 mg/kg
[16] = 10.0 mg/Kg orally once per day, carrier alone 408.45 ± 33.12, non-diabetic 122.2 ± 5.62, 10 mg/kg
[17] = 10.0 mg/Kg orally once per day, carrier alone 24.2 ± 5.8, non-diabetic 7.5 ± 0.8, 10 mg/kg

SMILES | Body weight [1, 6] | Concentration of creatinine in the serum [1, 7] | Kidney weight/body weight [1, 8] | Amount of albumin excreted with urine (18 hrs prior to sacrifice) [1, 9] | TGF-1β level in renal cortex (pg/mg total protein) (TGF-1β [2]; [10]) | Body weight [4, 11] | Concentration of creatinine in the serum [4, 12] | Kidney weight/body weight [4, 13] | Glycated haemoglobin % [4, 14] | Amount of albumin excreted with urine (18 hrs prior to sacrifice) [4, 15] | Glycemia [4, 16] | Level of TGF-1β (TGF-1β [5]; [17]) | also measured
CCCCCCCCCCCCCCCC(=O)NCCO [PEAum, Palmitoylethanolamide] | 24.55 ± 1.09 g | 0.48 ± 0.02 mg/dL | 6.89 ± 0.42 | 175.9 | 9.4 ± 3.2 pg/mg | 26.12 ± 1.21 g | 0.44 ± 0.01 mg/dL | 7.15 ± 0.38 | 11.01 ± 0.18% | 151.5 | 380.34 ± 34.16 mg/dL | 10.3 ± 2.5 pg/mg | GFR Glomerulal Filtration Rate (Creatinine Clearance) T 60 ([3]; single patients Paz-01, -02, -03, chronic inflammatory nephropathy, T 0 values 26.4, 21.4, 20.7): 44.6 and 35.2 and 36.1; GFR Glomerulal Filtration Rate (Creatinine Clearance) T 60 ([3]; single patients Paz-04, -05, -06, diabetic nephropathy (diabetes type 2), T 0 values 18.9, 22.4, 21.8): 41.4 and 35.6 and 39.8; Glycemia under fasting T 60 ([3]; with 10 U ready insulin): 230 mg/dL; Glycemia under fasting T 60 ([3]; with 10 U ready plus 20 U retard insulin): 210 mg/dL; Glycemia under fasting T 60 ([3]; with 12 U retard insulin): 110 mg/dL
CCCCCCCCCCCCCCCC(=O)NCCO [PEAm, Palmitoylethanolamide] | 23.58 ± 1.13 g | 0.92 ± 0.03 mg/dL | 7.85 ± 0.34 | 270.90 | 15.8 ± 3.5 pg/mg | 26.52 ± 1.08 g | 0.81 ± 0.01 mg/dL | 7.85 ± 0.44 | 11.32 ± 0.38% | 289.4 | 386.12 ± 36.76 mg/dL | 15.0 ± 3.0 pg/mg | 
O=C(/C=C/C(=O)NCCO)NCCO [diethanolamide of fumaric acid, Diethanolamide of fumaric acid] |  |  |  |  |  |  |  |  |  |  |  |  | Body weight ([1]; 10.0 mg/Kg i.p. in saline solution, posology as PEA, saline alone 24.22 ± 1.45, control 26.12 ± 1.11): 24.15 ± 1.12 g; Concentration of creatinine in the serum ([1]; 10.0 mg/Kg i.p., saline alone 1.36 ± 0.02, control 0.22 ± 0.01): 0.83 ± 0.06 mg/dL; Kidney weight/body weight ([1]; 10.0 mg/Kg i.p., saline alone 8.15 ± 0.46, control 6.44 ± 0.03): 6.58 ± 0.26; Amount of albumin excreted with urine (18 hrs prior to sacrifice) ([1]; 10.0 mg/Kg i.p., saline alone 351.57, control 37.4): 181.4; Solubility in water (Solubility in water): high solubility; TGF-1β level in renal cortex (pg/mg total protein) (TGF-1β [2]; 10.0 mg/Kg i.p., saline alone 22.1 ± 4.3, control 8.2 ± 0.7): 9.1 ± 2.8 pg/mg; Body weight ([4]; 10.0 mg/Kg i.p. once per day in saline solution, saline alone 24.43 ± 1.15, non-diabetic 27.82 ± 1.18): 26.22 ± 1.02 g; Concentration of creatinine in the serum ([4]; 10.0 mg/Kg i.p. once per day, saline alone 1.51 ± 0.08, non-diabetic 0.21 ± 0.01): 0.51 ± 0.03 mg/dL; Kidney weight/body weight ([4]; 10.0 mg/Kg i.p. once per day, saline alone 9.00 ± 0.56, non-diabetic 6.65 ± 0.04): 7.02 ± 0.46; Glycated haemoglobin % ([4]; 10.0 mg/Kg i.p. once per day, saline alone 13.41 ± 0.63, non-diabetic 4.89 ± 0.05): 12.12 ± 0.26%; Amount of albumin excreted with urine (18 hrs prior to sacrifice) ([4]; 10.0 mg/Kg i.p. once per day, saline alone 315.05, non-diabetic 33.7): 135.7; Glycemia ([4]; 10.0 mg/Kg i.p. once per day, saline alone 406.32 ± 33.44, non-diabetic 122.2 ± 5.62): 386.19 ± 33.98 mg/dL; Level of TGF-1β (TGF-1β [5]; 10.0 mg/Kg i.p. once per day, saline alone 25.3 ± 4.6, non-diabetic 7.5 ± 0.8): 11.7 ± 3.2 pg/mg

— US9402818B2, “Use of amides of mono- and dicarboxylic acids in the treatment of renal diseases” (priority 2010, dated 2016)
